Two molecules from the NIST ThermoML archive (doi:10.1016/j.jct.2014.11.014) can be followed below.

Numbers after ± are expanded uncertainties.

The nature of the data set: osmotic coefficient (dimensionless); mn = molality of the nth substance listed, in mol/kg. The settings on record: 298.15 K, 100 kPa, Liquid, isopiestic method.

Consider `CCCCn1cc[n+](C)c1.[Br-]` [1-butyl-3-methylimidazolium bromide] + O, for which the osmotic coefficient by setting is: (m1 = 0.6482) 0.771 ± 0.013; (m1 = 1.344) 0.742 ± 0.014; (m1 = 1.706) 0.734 ± 0.014; (m1 = 1.869) 0.731 ± 0.014; (m1 = 1.921) 0.726 ± 0.014; (m1 = 2.034) 0.729 ± 0.014. In addition, the osmotic coefficient (m1 = 2.247) worked out at 0.719 ± 0.014.
For the molecule `N[C@@H](CO)C(=O)O` [L-serine] + O, the osmotic coefficient by setting is: (m1 = 1.014) 0.986 ± 0.01; (m1 = 2.276) 0.876 ± 0.011; (m1 = 2.931) 0.855 ± 0.011; (m1 = 3.121) 0.875 ± 0.011; (m1 = 3.201) 0.872 ± 0.011; (m1 = 3.445) 0.861 ± 0.011. Moreover, the osmotic coefficient (m1 = 3.639) turned out to be 0.889 ± 0.011.
